The test system of experiment [1] is SARS-CoV-2. In words: microbe, parasite or virus in culture. To be noted: for antiviral activity: human lung cells (Calu-3). The experiment is classed as cell-based.
In experiment [2] the test system is SARS-CoV-2. In words: microbe, parasite or virus in culture. Type of experiment: cell-based. Conditions: for IC50: Severe acute respiratory syndrome coronavirus 2, in Primates, Vero cells (monkey kidney cells) infected with SARS-CoV-2.
The mark [3] stands for this setting: Severe acute respiratory syndrome coronavirus 2, Calu-3 cells (human lung cells) infected with SARS-CoV-2.

`CCN1CCN(c2cc(-c3ccc(F)cc3)c3c(n2)CCCCCC3)CC1` [Blonanserin] registered an IC50 in experiment [1] (setting [3]) of over 50 µM.
For the compound `Cc1cc(O)c2c(c1)C(=O)c1cc(O)cc(O)c1C2=O` [Emodin], the antiviral activity entry in experiment [2] (Vero cells) is given as “significant antiviral activities”; in experiment [1], “exhibited antiviral activity”.
Compound `Cc1cc(O)c2c(=O)c3c(O)cc(O)c4c5c(O)cc(O)c6c(=O)c7c(O)cc(C)c8c1c2c(c34)c(c78)c65` [Hypericin] returned an IC50 in experiment [1] (Severe acute respiratory syndrome coronavirus 2, Calu-3) of over 50 µM.
On to `COc1ncc(-c2ccc3nccc(-c4ccnnc4)c3c2)cc1NS(=O)(=O)c1ccc(F)cc1F` [Omipalisib], for which the IC50 in experiment [2] was found to be 0.49 µM; in experiment [1] (setting [3]), 0.01 µM. For the same compound, the antiviral activity result in experiment [1] is “exhibited antiviral activity”.
`CCN(CC)CCCC(C)Nc1ccnc2cc(Cl)ccc12` (stereo not drawn) [chloroquine] had an IC50 in experiment [2] of 8.89 µM.
`Cc1cccc(C)c1OCC(=O)N[C@@H](Cc1ccccc1)[C@@H](O)C[C@H](Cc1ccccc1)NC(=O)[C@H](C(C)C)N1CCCNC1=O` [lopinavir] gave an IC50 in experiment [2] of 11 µM.
